Columns and labels:
Assay type in all cases: cell-based, human
[1] = tested on: melanoma cell lines; assay: Cell viability assay (ATP quantitation), melanoma panel; details: 50 nM oligonucleotide, 72 hours, vs non-targeting pooled siRNA
Text: Human melanoma cell line VMM39 was purchased from American Type Culture Collection (ATCC). Human melanoma cell lines D04, MM415, WM1366, WM3629, WM3211, Sk-Mel-2 and Sk-Mel-28 were a generous gift from Boris Bastian at the University of California, San Francisco. Primary human melanoma cell line Hs852.T was purchased from the Cell Culture Core Facility (CCCF) at the University of California, San Francisco. Primary human melanoma cell line AV5 was obtained from metastasis of a melanoma patient. All experimental protocols were approved by UCSF Human Research Protection Program Institutional Review Board (IRB #12-0948), all patients signed informed consent, and methods were carried out in accordance with relevant guidelines and regulations. Resistant cell lines DO4RM, MM415RM, Sk-Mel-2RM and WM3629RM were established as previously described. [Sanlorenzo, M. et al., The lincRNA MIRAT binds to IQGAPI and modulates the MAPK pathway in NRAS mutant melanoma. Sci Rep 8, 10902 (2018).] Primary human melanocytic cell lines (PHM) from infant foreskin of five healthy donors were available in our cell repository and pooled. […]
Dependent on cell doubling time, 0.7-2×10^^3 cells were seeded in 96 well plates. […] 3 (synergy experiments) or 5 (solely ASO) days after transfection Total luminescence was measured on the SynergyHT plate reader (BioTek) using Gen5 software.

[2] = tested on: MM415 melanoma cell line; assay: Cell viability assay (ATP quantitation); details: 50 nM, 5 days (120 hrs), vs non-targeting control
Method: (§1) EsiRNA, siRNA and ASO GapmeRs were transfected in a final concentration of 50 nM unless mentioned otherwise and the transfection reagent Lipofectamine 3000 (2 ul/ml) was added according to the manufacturer's instructions.
(§2) Dependent on cell doubling time, 0.7-2×10^^3 cells were seeded in 96 well plates. 1 day after seeding cells were incubated in media with oligonucleotide concentration and/or MEKi and transfection reagent. 3 (synergy experiments) or 5 (solely ASO) days after transfection Total luminescence was measured on the SynergyHT plate reader (BioTek) using Gen5 software.

[3] = tested on: D04 melanoma cell line; assay: Cell viability assay (ATP quantitation); details: 50 nM, 5 days (120 hrs), vs non-targeting control
Method: as §1, §2

5′-ACAAAGAGAGACAGGAAAUUU-3′ (chain 2 AUUUCCUGUCUCUCUUUGUUU; listed as RNA, chemistry not given here) [SEQ ID NO:45]
significant cell viability decrease: cell viability decrease (RNAi screening) [1] | cell viability decrease [2] | cell viability decrease [3]
